How the values were obtained:
Assay type in all cases: in vivo
[1] = tested on: wrinkles on the back skin due to photoaging, hairless mice; experiment: UV wrinkle model amelioration test; settings: 9 weeks, 10 mice; for Number of Mice (number) +: +: Wrinkle-ameliorating effect was observed; for Number of Mice (number) ±: ±: Slight wrinkle-ameliorating effect; for Number of Mice (number) −: −: No wrinkle-ameliorating effect
Procedure: UV wrinkle model amelioration tests were conducted with the benzyl ursolate, methoxybenzyl oleanolate, phenylbenzyl betulate, benzoyl oleanolate, methoxybenzoyl betulate, and phenylpropionyl ursolate obtained in the above described Production Examples on hairless mice (5-week old, female) as test animals.
UVB (60 mJ/cm^2) was irradiated to the back skin of each animal of a test group consisting of 10 hairless mice once a day in a frequency of 5 days a week and after 8 weeks formation of wrinkles on the back skin due to photoaging was confirmed. Thereafter, 100 μl of ethanol solutions containing the aromatic compound derivatives of triterpenoid obtained in the Production Examples in concentrations shown in Table 3 were applied thereon once a day in a frequency of 5 days a week. After 9 weeks from the initiation of applying, the degree of ameliorating wrinkles in the skin due to photoaging were evaluated with naked eyes according to the following evaluation criteria.
−: No wrinkle-ameliorating effect was observed.
±: Slight wrinkle-ameliorating effect was observed.
+: Wrinkle-ameliorating effect was observed.
For comparison, ethanol solutions containing of palmitoyl oleanolate or 2-ethylhexyl 2-ethylhexanoyl ursolate in 1% concentration, hitherto used as drugs having a photoaging inhibiting effect, and neat ethanol as a control were applied to hairless mice after UVB irradiation in the same manner as described above and wrinkle-ameliorating effects were evaluated, respectively.

[2] = tested on: Hartley guinea pigs; experiment: Skin irritation test (24 hours' closed patch test)
Excerpt: Skin irritation tests of benzyl ursolate, methoxybenzyl oleanolate, nitrobenzyl betulate, naphthylmethyl ursolate, diphenylmethyl oleanolate, benzoyl oleanolate, methoxybenzoyl betulate, and phenylpropionyl ursolate obtained in the above-described Production Examples were made using Hartley guinea pigs (300 to 500 g, female) as test animals.
For test groups each consisting of 6 guinea pigs, the hair on the back of each guinea pig was removed or shaven and on the hair-removed or shaven portion was applied a plastic adhesive plaster which a cloth patch of 15 mm in diameter impregnated with 50 mg of white vaseline containing a 10% by weight of one of the aromatic compound derivatives of triterpenoid obtained in the Production Examples described above was attached, and then 24 hours' closed patch test was performed. After the closed patch tests were completed, the resulting skin reactions after the removal of the plastic adhesive plasters were evaluated immediately (after 0 hour) and after 24 hours respectively, according to the evaluation criteria below and an average score was calculated based on the results obtained 6 animals in each test group.
(§1) 0: No skin reaction being observed
(§2) 1: Weak or unclearly bordered erythema
(§3) 3: Reaction accompanying edema
(§4) 4: Reaction of ulcer, necrosis, or the like
As a control, the above-described test and evaluation were conducted with only white vaseline.

[3] = tested on: Hartley guinea pigs; experiment: Allergy test (maximization method); settings: skin reaction 24 hours after patch removal, scale 0-4
Excerpt: Allergy tests of benzyl ursolate, methoxybenzyl oleanolate, phenylbenzyl betulate, benzoyl oleanolate, methoxybenzoyl betulate, and phenylpropionyl ursolate obtained in the above-described Production Examples were made using Hartley guinea pigs (300 to 500 g, female) as test animals.
For test groups each consisting of 6 guinea pigs were applied each an aromatic compound derivative of triterpenoid to a concentration of 3 w/v % in olive oil, an aromatic compound derivative of triterpenoid to a concentration of 0.3 w/v % in olive oil, and neat olive oil, respectively, by a maximization method to perform sensitization induction.
Thereafter, in order to induce sufficient immunoresponse, after a grace period of 10 days from the day when the final sensitization was made, there was applied to the back skin of each guinea pig a patch plate having 1.5 cm diameter coated with 100 μl of an aromatic compound derivative of triterpenoid to a concentration of 3 w/v % in olive oil, an aromatic compound derivative of triterpenoid to a concentration of 0.3 w/v % in olive oil, or neat olive oil, and the patch plate was removed after 24 hours. The resulting skin reaction after 24 hours from the removal of the patch plate was evaluated according to the following evaluation criteria and an average score was calculated for each test group.
as §1, §2, §3, §4

[4] = skin reaction 24 hours after plaster removal, 10% by weight in white vaseline, 24 hours' closed patch, average of 6 guinea pigs, scale 0-4
[5] = skin reaction immediately after plaster removal, 10% by weight in white vaseline, 24 hours' closed patch, average of 6 guinea pigs, scale 0-4
[6] = 3%-challenge patch, 3 w/v % in olive oil

CCCCC(CC)COC(=O)[C@]12CC[C@@H](C)[C@H](C)[C@H]1C1=CC[C@@H]3[C@@]4(C)CC[C@H](OC(=O)C(CC)CCCC)C(C)(C)[C@@H]4CC[C@@]3(C)[C@]1(C)CC2 (stereo partly drawn) [2-Ethylhexyl 2-ethylhexanoyl ursolate, 2-ethylhexyl 2-ethylhexanoyl ursolate, reference compound]
Number of Mice (number) + ([1]; 1.0 w/v% in ethanol): 6 number
Number of Mice (number) ± ([1]; 1.0 w/v% in ethanol): 4 number
Number of Mice (number) − ([1]; 1.0 w/v% in ethanol): 0 number

CC1(C)CC[C@]2(C(=O)O)CC[C@]3(C)C(=CC[C@@H]4[C@@]5(C)CC[C@H](OC(=O)c6ccccc6)C(C)(C)[C@@H]5CC[C@]43C)[C@@H]2C1 [Benzoyl oleanolate, benzoyl oleanolate]
Score (Average) After 24 hours [2, 4]: 0
Score (Average) After 0 hour [2, 5]: 0
Evaluation Score (Average), 3%-induced group ([3]; 0.3%-challenge patch): 0
Evaluation Score (Average), Olive oil induced group ([3]; 0.3%-challenge patch): 0
Evaluation Score (Average), 0.3%-induced group ([3]; 0.3%-sensitized group): 0
Evaluation Score (Average), 3%-induced group [3, 6]: 0
Evaluation Score (Average), Olive oil induced group ([3]; 3%-challenge patch): 0
Evaluation Score (Average), 0.3%-induced group ([3]; 3%-sensitized group): 0
Evaluation Score (Average), 3%-induced group ([3]; Olive oil-challenge patch): 0
Evaluation Score (Average), 0.3%-induced group ([3]; Olive oil-sensitized group): 0
Number of Mice (number) + ([1]; 0.01 w/v% in ethanol): 6 number
Number of Mice (number) ± ([1]; 0.01 w/v% in ethanol): 4 number
Number of Mice (number) − ([1]; 0.01 w/v% in ethanol): 0 number

C[C@H]1[C@H](C)CC[C@]2(C(=O)OCc3ccccc3)CC[C@]3(C)C(=CC[C@@H]4[C@@]5(C)CC[C@H](O)C(C)(C)[C@@H]5CC[C@]43C)[C@H]12 [Benzyl ursolate, benzyl ursolate]
Score (Average) After 24 hours [2, 4]: 0
Score (Average) After 0 hour [2, 5]: 0
Evaluation Score (Average), 3%-induced group ([3]; 0.3%-challenge patch): 0
Evaluation Score (Average), Olive oil induced group ([3]; 0.3%-challenge patch): 0
Evaluation Score (Average), 0.3%-induced group ([3]; 0.3%-sensitized group): 0.17
Evaluation Score (Average), 3%-induced group [3, 6]: 0.17
Evaluation Score (Average), Olive oil induced group ([3]; 3%-challenge patch): 0.33
Evaluation Score (Average), 0.3%-induced group ([3]; 3%-sensitized group): 0
Evaluation Score (Average), 3%-induced group ([3]; Olive oil-challenge patch): 0
Evaluation Score (Average), 0.3%-induced group ([3]; Olive oil-sensitized group): 0
Number of Mice (number) + ([1]; 0.005 w/v% in ethanol, 100 μl once a day 5 days a week): 9 number
Number of Mice (number) ± ([1]; 0.005 w/v% in ethanol): 1 number
Number of Mice (number) − ([1]; 0.005 w/v% in ethanol): 0 number

CC1(C)CC[C@]2(C(=O)OC(c3ccccc3)c3ccccc3)CC[C@]3(C)C(=CC[C@@H]4[C@@]5(C)CC[C@H](O)C(C)(C)[C@@H]5CC[C@]43C)[C@@H]2C1 [Diphenylmethyl oleanolate, diphenylmethyl oleanolate]
Score (Average) After 24 hours [2, 4]: 0
Score (Average) After 0 hour [2, 5]: 0

C=C(C)C1CCC2(C(=O)O)CCC3(C)C(CCC4C5(C)CCC(OC(=O)c6ccc(OC)cc6)C(C)(C)C5CCC43C)C12 (stereo not drawn) [Methoxybenzoyl betulate, methoxybenzoyl betulate]
Score (Average) After 0 hour ([2]; guinea pig, in vivo): 0
Score (Average) After 24 hours ([2]; guinea pig, in vivo): 0
Number of Mice (number) + ([1]; 0.01 w/v% in ethanol): 8 number
Number of Mice (number) ± ([1]; 0.01 w/v% in ethanol): 2 number
Number of Mice (number) − ([1]; 0.01 w/v% in ethanol): 0 number

COc1ccc(COC(=O)[C@]23CCC(C)(C)C[C@H]2C2=CC[C@@H]4[C@@]5(C)CC[C@H](O)C(C)(C)[C@@H]5CC[C@@]4(C)[C@]2(C)CC3)cc1 [Methoxybenzyl oleanolate, methoxybenzyl oleanolate]
Score (Average) After 24 hours [2, 4]: 0
Score (Average) After 0 hour [2, 5]: 0
Evaluation Score (Average), 3%-induced group ([3]; 0.3%-challenge patch): 0
Evaluation Score (Average), Olive oil induced group ([3]; 0.3%-challenge patch): 0.17
Evaluation Score (Average), 0.3%-induced group ([3]; 0.3%-sensitized group): 0
Evaluation Score (Average), 3%-induced group [3, 6]: 0.33
Evaluation Score (Average), Olive oil induced group ([3]; 3%-challenge patch): 0.17
Evaluation Score (Average), 0.3%-induced group ([3]; 3%-sensitized group): 0
Evaluation Score (Average), 3%-induced group ([3]; Olive oil-challenge patch): 0.17
Evaluation Score (Average), 0.3%-induced group ([3]; Olive oil-sensitized group): 0.17
Number of Mice (number) + ([1]; 0.01 w/v% in ethanol): 7 number
Number of Mice (number) ± ([1]; 0.01 w/v% in ethanol): 3 number
Number of Mice (number) − ([1]; 0.01 w/v% in ethanol): 0 number

C=C(C)C1CCC2(C(=O)OCc3ccc([N+](=O)[O-])cc3)CCC3(C)C(CCC4C5(C)CCC(O)C(C)(C)C5CCC43C)C12 (stereo not drawn) [Nitrobenzyl betulate, nitrobenzyl betulate]
Score (Average) After 0 hour ([2]; guinea pig, in vivo): 0
Score (Average) After 24 hours ([2]; guinea pig, in vivo): 0

CCCCCCCCCCCCCCCC(=O)OC1CCC2(C)C(CCC3(C)C2CC=C2C4CC(C)(C)CCC4(C(=O)O)CCC23C)C1(C)C (stereo not drawn) [Palmitoyl oleanolate, palmitoyl oleanolate, reference compound]
Number of Mice (number) + ([1]; 1.0 w/v% in ethanol): 7 number
Number of Mice (number) ± ([1]; 1.0 w/v% in ethanol): 3 number
Number of Mice (number) − ([1]; 1.0 w/v% in ethanol): 0 number

C=C(C)C1CCC2(C(=O)OCc3ccc(-c4ccccc4)cc3)CCC3(C)C(CCC4C5(C)CCC(O)C(C)(C)C5CCC43C)C12 (stereo not drawn) [Phenylbenzyl betulate, phenylbenzyl betulate]
Number of Mice (number) + ([1]; 0.05 w/v% in ethanol): 8 number
Number of Mice (number) ± ([1]; 0.05 w/v% in ethanol): 2 number
Number of Mice (number) − ([1]; 0.05 w/v% in ethanol): 0 number

C[C@H]1[C@H](C)CC[C@]2(C(=O)O)CC[C@]3(C)C(=CC[C@@H]4[C@@]5(C)CC[C@H](OC(=O)CCc6ccccc6)C(C)(C)[C@@H]5CC[C@]43C)[C@H]12 [Phenylpropionyl ursolate, phenylpropionyl ursolate]
Score (Average) After 24 hours [2, 4]: 0
Score (Average) After 0 hour [2, 5]: 0
Evaluation Score (Average), 3%-induced group ([3]; 0.3%-challenge patch): 0.17
Evaluation Score (Average), Olive oil induced group ([3]; 0.3%-challenge patch): 0
Evaluation Score (Average), 0.3%-induced group ([3]; 0.3%-sensitized group): 0
Evaluation Score (Average), 3%-induced group [3, 6]: 0
Evaluation Score (Average), Olive oil induced group ([3]; 3%-challenge patch): 0
Evaluation Score (Average), 0.3%-induced group ([3]; 3%-sensitized group): 0
Evaluation Score (Average), 3%-induced group ([3]; Olive oil-challenge patch): 0
Evaluation Score (Average), 0.3%-induced group ([3]; Olive oil-sensitized group): 0
Number of Mice (number) + ([1]; 0.05 w/v% in ethanol): 7 number
Number of Mice (number) ± ([1]; 0.05 w/v% in ethanol): 3 number
Number of Mice (number) − ([1]; 0.05 w/v% in ethanol): 0 number

naphthylmethyl ursolate
Score (Average) After 24 hours [2, 4]: 0
Score (Average) After 0 hour [2, 5]: 0

— patent publication US6338854B1, “Photoaging skin-care preparation and method of treating wrinkled skin” (Pola Chemical Industries, Inc., priority 1996, dated 2002)
